Laboratory results as given in patent publication US10004748B2, “Methods of treating PR-positive, luminal A breast cancer with PI3K inhibitor, pictilisib” (Genentech, Inc., priority 2014, dated 2018).
Values joined by “and” are separate entries in the source; they are usually repeats but may differ in a detail not shown here. Equal values may be shown once. Read-outs that look alike come from different tables or passages of the source.

Legend:
[1] = system: advanced or metastatic ER+ breast cancer (MBC); conditions: for Median PFS / Events (PFS): all arms on fulvestrant; for HR (PFS): GDC-0941 vs placebo, both on fulvestrant
[2] = for Discontinued GDC-0941/placebo: Non-PD, patients (%): events unrelated to disease progression, all arms on fulvestrant
[3] = system: cytochrome P450 enzymes, including CYP2C8 and CYP3A4/5; experiment: In vitro metabolism studies; format: in vitro ADME; conditions: preliminary results
[4] = PIK3CA Mutation Status Positive
[5] = PIK3CA Mutation Status Wild Type
[6] = All luminal A/B typed patients (N 74/72)
[7] = PR+ subgroup of PAM50-typed patients (N 50/52)
[8] = 340 mg dose in combination with fulvestrant

C[C@]12CC[C@@H]3c4ccc(O)cc4C[C@@H](CCCCCCCCC[S+]([O-])CCCC(F)(F)C(F)(F)F)[C@H]3[C@@H]1CC[C@@H]2O (stereo partly drawn) [fulvestrant, (7α,17β)-7-{9-[(4,4,5,5,5-pentafluoropentyl)sulfinyl]nonyl}estra-1,3,5(10)-triene-3,17-diol, reference compound]
Median PFS ([1]; All Patients (ITT)): 3.8 Months
Median PFS ([1]; Luminal A subgroup (n=98)): 5.26 months
Median PFS [1, 4]: 5.1 Months
Median PFS [1, 5]: 3.6 Months
Median PFS ([1]; PR Status Positive (n=116)): 3.7 Months
Median PFS ([1]; PR-positive and Luminal A (n=73)): 5.7 months
Response rate on the basis of local assessment ([1]; all patients): 5%
Response rate ([1]; patients with PIK3CA-mutant tumors): 3%
Response rate ([1]; patients without a detectable PIK3CA-mutant tumor): 5%
Discontinued GDC-0941/placebo: Non-PD, patients (%) [2]: 10 (13%)

CS(=O)(=O)N1CCN(Cc2cc3nc(-c4cccc5[nH]ncc45)nc(N4CCOCC4)c3s2)CC1 [GDC-0941, 4-(2-(1H-indazol-4-yl)-6-((4-(methylsulfonyl)piperazin-1-yl)methyl)thieno[3,2-d]pyrimidin-4-yl)morpholine]
Median PFS ([1]; All Patients (ITT)): 6.2 Months
HR (PFS) [1, 6]: 0.81
Events (PFS) [1, 6]: 33/39
Median PFS [1, 6]: 6.18/5.09 months
Median PFS ([1]; Baseline ECOG Score 0): 6.6 Months
Median PFS ([1]; Baseline ECOG Score 1): 5.0 Months
Median PFS ([1]; Bone Only Non-Measureable Disease at Baseline No): 5.0 Months
Events (PFS) ([1]; LumA (N 46/52)): 15/27
Events (PFS) ([1]; LumB (N 28/20)): 18/12
Median PFS ([1]; LumB (N 28/20)): 3.7 months and 3.71/3.55 months
HR (PFS) ([1]; LumB): 1.05
Median PFS ([1]; Measurable Disease at Baseline (Derived) Yes): 5.0 Months
Median PFS ([1]; Num of Previous Therapies in Metastatic Setting 0): 6.6 Months
Median PFS ([1]; Num of Previous Therapies in Metastatic Setting 1): 6.2 Months
Median PFS ([1]; Num of Previous Therapies in Metastatic Setting 3+): 3.6 Months
Median PFS ([1]; PIK3CA Helical Domain Mutation Status Positive): 7.3 Months
Median PFS ([1]; PIK3CA Helical Domain Mutation Status Wild Type): 6.2 Months
Median PFS ([1]; PIK3CA Kinase Domain Mutation Status Positive): 6.2 Months
Median PFS ([1]; PIK3CA Kinase Domain Mutation Status Wild Type): 6.6 Months
Median PFS [1, 4]: 6.2 Months
Median PFS [1, 5]: 5.8 Months
Median PFS ([1]; PR Status Negative): 5 Months
Median PFS ([1]; PR Status Negative, listed as GDC0941): 5.0 Months
Median PFS ([1]; PR Status Positive (n=116)): 7.2 Months
Median PFS ([1]; PR Status Unknown): 2.9 Months
HR (PFS) [1, 7]: 0.47
Events (PFS) [1, 7]: 19/32
Median PFS [1, 7]: 7.16/3.68 months
Events (PFS) ([1]; PR+, LumA (N 34/39)): 9/25
HR (PFS) ([1]; PR+, LumA (n=73)): 0.31
Events (PFS) ([1]; PR+, LumB (N 16/13)): 10/7
Median PFS ([1]; PR+, LumB (N 16/13)): 3.91/3.32 months
HR (PFS) ([1]; PR+, LumB): 0.92
Events (PFS) ([1]; PR−, LumA (N 9/7)): 3/2
HR (PFS) ([1]; PR−, LumA): 1.75
Median PFS ([1]; Primary Resistance (Derived)): 5.0 Months
Median PFS ([1]; Primary/Secondary Resistance Unknown): 1.7 Months
Median PFS ([1]; Received Prior Adjuvant/Neo-Adjuvant Therapy No): 4.1 Months
Median PFS ([1]; Received Prior Adjuvant/Neo-Adjuvant Therapy Yes): 7.2 Months
Median PFS ([1]; Visceral Disease No): 8.2 Months
Median PFS ([1]; Visceral Disease Yes): 4.1 Months
Overall improvement of median PFS vs placebo group ([1]; patients positive for both the estrogen and progesterone receptor): over 15 weeks
Patients who experienced a dose modification for an adverse event [2, 8]: 66%
Rate of discontinuation for non-PD events [2, 8]: 31%
Tolerability [2, 8]: acceptable tolerability profile
Discontinued GDC-0941/placebo: Non-PD, patients (%) [2]: 28 (31%)
Urinary tract infection, All Grades, patients (%) ([2]; human, in vivo): 9 (10%)
AST increased, All Grades, patients (%) ([2]; n = 89, with fulvestrant): 11 (12%)
AST increased, Grade ≥3, patients (%) ([2]; n = 89, with fulvestrant): 3 (3%)
Abdominal pain, All Grades, patients (%) ([2]; n = 89, with fulvestrant): 9 (10%)
Abdominal pain, Grade ≥3, patients (%) ([2]; n = 89, with fulvestrant): 2 (2%)
Alopecia, All Grades, patients (%) ([2]; n = 89, with fulvestrant): 10 (11%)
Arthralgia, All Grades, patients (%) ([2]; n = 89, with fulvestrant): 11 (12%)
Constipation, All Grades, patients (%) ([2]; n = 89, with fulvestrant): 14 (16%)
Cough, All Grades, patients (%) ([2]; n = 89, with fulvestrant): 14 (15%)
Decreased appetite, All Grades, patients (%) ([2]; n = 89, with fulvestrant): 20 (23%)
Decreased appetite, Grade ≥3, patients (%) ([2]; n = 89, with fulvestrant): 1 (1%)
Diarrhea, All Grades, patients (%) ([2]; n = 89, with fulvestrant): 58 (65%)
Diarrhea, Grade ≥3, patients (%) ([2]; n = 89, with fulvestrant): 5 (6%)
Discontinued GDC-0941/placebo: Adverse Events, patients (%) ([2]; n = 89, with fulvestrant): 16 (18%)
Discontinued fulvestrant for non-PD, patients (%) ([2]; n = 89, with fulvestrant): 15 (17%)
Dry skin, All Grades, patients (%) ([2]; n = 89, with fulvestrant): 9 (10%)
Dysgeusia, All Grades, patients (%) ([2]; n = 89, with fulvestrant): 35 (39%)
Dyspepsia, All Grades, patients (%) ([2]; n = 89, with fulvestrant): 10 (11%)
Dyspneoa, All Grades, patients (%) ([2]; n = 89, with fulvestrant): 10 (11%)
Fatigue, All Grades, patients (%) ([2]; n = 89, with fulvestrant): 36 (40%)
Fatigue, Grade ≥3, patients (%) ([2]; n = 89, with fulvestrant): 5 (6%)
Headache, All Grades, patients (%) ([2]; n = 89, with fulvestrant): 12 (14%)
Headache, Grade ≥3, patients (%) ([2]; n = 89, with fulvestrant): 1 (1%)
Hot flush, All Grades, patients (%) ([2]; n = 89, with fulvestrant): 12 (13%)
Hyperglycemia, All Grades, patients (%) ([2]; n = 89, with fulvestrant): 16 (18%)
Hyperglycemia, Grade ≥3, patients (%) ([2]; n = 89, with fulvestrant): 4 (5%)
Injection site pain, All Grades, patients (%) ([2]; n = 89, with fulvestrant): 10 (11%)
Mucosal inflammation, All Grades, patients (%) ([2]; n = 89, with fulvestrant): 9 (10%)
Muscle spasms, All Grades, patients (%) ([2]; n = 89, with fulvestrant): 10 (11%)
Nausea, All Grades, patients (%) ([2]; n = 89, with fulvestrant): 48 (54%)
Nausea, Grade ≥3, patients (%) ([2]; n = 89, with fulvestrant): 2 (2%)
Pruritus, All Grades, patients (%) ([2]; n = 89, with fulvestrant): 11 (12%)
Pruritus, Grade ≥3, patients (%) ([2]; n = 89, with fulvestrant): 1 (1%)
Pyrexia, All Grades, patients (%) ([2]; n = 89, with fulvestrant): 12 (13%)
Stomatitis, All Grades, patients (%) ([2]; n = 89, with fulvestrant): 16 (18%)
Stomatitis, Grade ≥3, patients (%) ([2]; n = 89, with fulvestrant): 2 (2%)
Vomiting, All Grades, patients (%) ([2]; n = 89, with fulvestrant): 24 (27%)
Vomiting, Grade ≥3, patients (%) ([2]; n = 89, with fulvestrant): 2 (2%)
in vitro metabolism [3]: partially metabolized by multiple Phase I cytochrome P450 enzymes, including CYP2C8 and CYP3A4/5
